Common to all, as to type: cell-based
In data set [1] the test system is Normal Human Dermal Fibroblast (NHDF) cells. The experiment in a line: Cell migration into scraped monolayer, NHDF (Example 5). The conditions noted are these: 1 and 10 mg/ml, 48 hours exposure then 72 hours growth. The protocol:
In a similar manner, cell migration was explored in vitro by scraping the cell monolayer and culturing the cells in the presence of 5,6-dihydroxy-hexan-2-one at concentrations of 1 mg/ml and 10 mg/ml. FIGS. 20(a)-(l) are pictures that visually display the migration of coronary artery smooth muscle cells (CASMC) (FIGS. 20(a)-(f)) and normal human dermal fibroblast (NHDF) cells (FIGS. 20(g)-(l)) exposed to various concentrations of 5,6-dihydroxy-hexan-2-one after 48 hours exposure, then cultured an additional 72 hours after removal of the 5,6-dihydroxy-hexan-2-one as described in Example 5. Specifically, FIGS. 20(a) and (b) represent the CASMC control at time zero and 72 hours, respectively; FIGS. 20(c) and (d) represent CASMC (10 mg/ml) at time zero and 72 hours, respectively; and FIGS. 20(e) and (f) represent CASMC (1 mg/ml) at time zero and 72 hours, respectively. FIGS. 20(g) and (h) represent the NHDF cell control at time zero and 72 hours, respectively; FIGS. 20(i) and (j) represent NHDF cells (10 mg/ml) at time zero and 72 hours, respectively; and FIGS. 20(k) and (l) represent NHDF cells (1 mg/ml) at time zero and 72 hours, respectively.
Cell migration judged by the ability of cells to repopulate the scraped “acellular” space over time indicated no microscopically identifiable effect by the agent at the concentrations tested. […]

The test system is the same in data set [2]. The data set is described as follows: CytoTox 96 LDH release cytotoxicity assay (Example 3). As to the method: The assay used was a non-radioactive cytotoxicity assay available under the trade designation CytoTox 96 from Promega Corporation (Madison, Wis.), which was designed to determine the cytotoxicity of a substance by quantitatively measuring the presence of lactate dehydrogenase (LDH) in cell culture supernatant. The enzymatic assay utilizes the LDH released in the supernatant in the conversion of a tetrazolium salt substrate into a red formazan product. This resulting product is measured using a standard 96 well plate reader where the absorbance recorded at 490 nanometers is directly proportional to the number of lysed cells. The Normal Human Dermal Fibroblasts were available from Clonetics Corporation (San Diego, Calif.).
(§1) The 5,6-dihydroxy-hexan-2-one (1.2 grams) was dissolved in 12 ml of phosphate buffered saline and was filter sterilized through a 0.22 micrometer syringe filter prior to use. The 5,6-dihydroxy-hexan-2-one was further diluted to 10^−1, 10^−2, 10^−3, 10^−4, 10^−5, and 10^−6 using serial dilutions for the evaluation.
NHDF were seeded at 45,000 cells/well in 24 well plate(s). Cells were grown for 72 hours, 48 hours of which was done in the presence of the test chemicals. 24 hours after seeding, 5,6-dihydroxy-hexan-2-one was added to the cell culture plates (2 ml/well). […] Samples were analyzed on the above-described assay as provided in the instructions for use of the assay.
For orientation: LDH leaks from cells whose membrane has failed.

In data set [3] the test system is human Glioblastoma/Astrocytoma U87 cells. The data set is described as follows: Cell migration after 48 hours exposure, U87 (Example 6). To be noted: U87, 10 mg/ml and 1 mg/ml. The protocol:
(§2) Evaluation of the effects of 5,6-dihydroxy-hexan-2-one on human umbilical vein endothelial cells (HUVEC) and Glioblastoma/Astrocytoma cells U87 cellular proliferation and migration during 120 hours following 48 hour exposure to 5,6-dihydroxy-hexan-2-one at concentration of 10 mg/ml, 1 mg/ml, 100 micrograms/ml. Controls were cells not exposed to the agent.
(§3) In order to further explore the effects of this compound, experiments to evaluate the dose-effect response on the antiproliferative effect and on cell migration were conducted on two cell lines, human umbilical vein endothelial cells (HUVEC) and Glioblastoma/Astrocytoma cells (U87), over 120 hours after 48 hours of exposure to the compound.
FIGS. 24(a)-(l) are pictures that visually display the migration over time of human Glioblastoma/Astrocytoma U87 cells after 48 hours exposure to various concentrations of 5,6-dihydroxy-hexan-2-one. Specifically, FIGS. 24(a)-(d) represent the control, FIGS. 24(e)-(h) represent 10 mg/ml, and FIGS. 24(i)-(l) represent 1 mg/ml 5,6-dihydroxy-hexan-2-one. FIGS. 24(a), (e), and (i) represent migration after 2 hours; FIGS. 24(b), (f), and (j) represent migration after 14 hours; FIGS. 24(c), (g), and (k) represent migration after 20 hours; and FIGS. […], (h), and (l) represent migration after 48 hours.

The test system of data set [4] is Normal Human Dermal Fibroblast (NHDF) cells. The data set is described as follows: Cell count and visual morphology of NHDF after exposure and after re-plating (Example 3). To be noted: for cell count: NHDF seeded at 45,000 cells/well, 48 hours of exposure; for growth after re-plating without compound: then 96 hours in fresh media without compound. The protocol: as §1
NHDF were seeded at 45,000 cells/well in 24 well plate(s). Cells were grown for 72 hours, 48 hours of which was done in the presence of the test chemicals. 24 hours after seeding, 5,6-dihydroxy-hexan-2-one was added to the cell culture plates (2 ml/well). Assay plates were pulled for analysis at 24 and 48 hours after addition of the chemical compound. Samples were analyzed on the above-described assay as provided in the instructions for use of the assay.
Cell counts were taken after the cells had been plated for 72 hours and exposed to 5,6-dihydroxy-hexan-2-one for 48 hours.
After 48 hours of exposure to 5,6-dihydroxy-hexan-2-one, a cell count was taken on the 10^−1 concentration group and the 10^−6 concentration group. The 10^−1 cell count was 45,000 cells/well and the 10^−6 cell count was 275,000 cells/well. The count for the 10^−1 concentration group yielded the same number of cells that were previously seeded, while the 10^−6 concentration group had continued to grow rapidly without problems. Cells from these two different groups were then plated out at the same density as before, but without exposure to 5,6-dihydroxy-hexan-2-one and in fresh media for 96 hours. Visual representations of these two groups can be seen in FIG. 5 (10^−1, exposed to 5,6-dihydroxy-hexan-2-one for 48 hours, continued the culture for an additional 96 hours without 5,6-dihydroxy-hexan-2-one) and FIG. 6 (10^−6, exposed to 5,6-dihydroxy-hexan-2-one for 48 hours, continued the culture for an additional 96 hours without 5,6-dihydroxy-hexan-2-one).

The subject of data set [5] is human umbilical vein endothelial cells (HUVEC). The data set is described as follows: Cell migration after 48 hours exposure, HUVEC (Example 6). The conditions noted are these: 10 mg/ml and 1 mg/ml. The protocol:
as §2, §3
FIGS. 23(a)-(l) are pictures that visually display the migration over time of human umbilical vein endothelial cells (HUVEC) after 48 hours exposure to various concentrations of 5,6-dihydroxy-hexan-2-one. Specifically, FIGS. 23(a)-(d) represent the control, FIGS. 23(e)-(h) represent 10 mg/ml, and FIGS. 23(i)-(l) represent 1 mg/ml 5,6-dihydroxy-hexan-2-one. FIGS. 23(a), (e), and (i) represent migration after 2 hours; FIGS. 23(b), (f), and (j) represent migration after 14 hours; FIGS. 23(c), (g), and (k) represent migration after 20 hours; and FIGS. […], (h), and (l) represent migration after 48 hours.

On to `CC(=O)CCC(O)CO` (centres unmarked) [5,6-dihydroxy-hexan-2-one], for which the cell migration entry was “not affected” in data set [1], “did not shown differences” in data set [3] and “did not shown differences” in data set [5]. The “cytotoxicity (LDH release), in words” value in data set [2] (10^-1 concentration) is listed as “no significant cytotoxicity”; in data set [2] (various concentrations, 48 hours) it was “no increase in cytotoxicity”. In addition, the values for the cell count in data set [4] (10^-1 concentration) and in data set [4] (10^-6 concentration) were 45,000 cells/well and 275,000 cells/well, respectively. For the same molecule, the “growth after re-plating without compound” value is “impaired ability for cell proliferation” in data set [4] (NHDF, 10^-1, exposed 48 hours) and “continued to grow without problems” in data set [4] (NHDF, 10^-6, exposed 48 hours). Besides, the visual morphological study result in data set [4] (NHDF, 10^-1 concentration, 24 and 48 hours) is “signs of cell distress”. Besides, the “visual physical cellular response” value in data set [4] (NHDF, 10^-1 concentration, 48 hours) is “Fewer human dermal fibroblasts cells were observed”.

(Values after US20090061515A1, “Methods of inhibiting or suppressing cellular proliferation” (priority 2007, published 2009).)
